Measurements as given in US20180201592A1, “2-AMINO-1,3,4-THIADIAZINE AND 2-AMINO-1,3,4-OXADIAZINE BASED ANTIFUNGAL AGENTS” (F2G Limited, priority 2015, published 2018).

Key:
Details in all cases: banded MIC grade
Aspergillus niger = experiment: Minimum inhibitory concentration, YAG medium; assay type: cell-based
Outline: (§1)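 MIC values (mg/L) were derived from well optical density at 485 nm. Plates with Aspergillus spores and doubling aqueous dilutions of compound (5 mg/mL DMSO stock) had been incubated at 35° C for 24 hrs.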

Aspergillus flavus = experiment: Minimum inhibitory concentration, YAG medium; assay type: cell-based
Outline: as §1

Aspergillus terreus = experiment: Minimum inhibitory concentration, YAG medium; assay type: cell-based
Outline: as §1

A. fumigatus 210 [1] = experiment: Minimum inhibitory concentration, RPMI medium; assay type: cell-based
Outline: (§2)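 Compound doubling dilutions were prepared from 5 mg/mL DMSO stock; fungus was diluted in RPMI 1640 with 2% glucose and 0.135 M MOPS (pH 7.0), giving inocula of 1-2×10^4 cfu/mL and drug range 50-0.05 mg/L. Plates ran 24-48 hrs at 35° C; MIC is the lowest concentration giving >80% growth inhibition by OD485 versus drug-free control.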

A. fumigatus = experiment: Minimum inhibitory concentration, RPMI medium; assay type: cell-based
Outline: as §2

A. terreus 49 [2] = experiment: Minimum inhibitory concentration, YAG medium; assay type: cell-based, Aspergillus terreus
Outline: as §1

Aspergillus fumigatus = experiment: Minimum inhibitory concentration, YAG medium; assay type: cell-based
Outline: (§3)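 MIC, in mg/L, defined as the lowest drug level inhibiting growth by >70% relative to drug-free wells, judged by OD 485 nm after 24 hrs at 35° C. Spores (1-2×10^4 cfu/mL) were grown in YAG medium against doubling dilutions, usually 50-0.05 mg/L, repeated at 0.5-0.0005 mg/L where needed.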

A. terreus 49 [3] = experiment: Minimum inhibitory concentration, RPMI medium; assay type: cell-based
Outline: (§4)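 Thawed 5 mg/mL DMSO stocks are vortexed, diluted into sterile water and serially halved in water. The MIC test is then run in RPMI 1640 at 35° C for 24-48 hrs. Wells are read at OD 485 nm.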

C. albicans = experiment: Minimum inhibitory concentration, RPMI medium; assay type: cell-based
Outline: as §4

A. terreus = experiment: Minimum inhibitory concentration, RPMI medium; assay type: cell-based
Outline: as §4

C. tropicalis = experiment: Minimum inhibitory concentration, RPMI medium; assay type: cell-based
Outline: as §4

A. niger = experiment: Minimum inhibitory concentration, RPMI medium; assay type: cell-based
Outline: as §4

C. krusei = experiment: Minimum inhibitory concentration, RPMI medium; assay type: cell-based
Outline: as §4

A. flavus = experiment: Minimum inhibitory concentration, RPMI medium; assay type: cell-based
Outline: as §4

C. glabrata = experiment: Minimum inhibitory concentration, RPMI medium; assay type: cell-based
Outline: as §4

C. parapsilosis = experiment: Minimum inhibitory concentration, RPMI medium; assay type: cell-based
Outline: as §4

A. fumigatus 210 [4] = experiment: Minimum inhibitory concentration, YAG medium; assay type: cell-based, Aspergillus fumigatus
Outline: as §3

NC1=NN=C(CCCCOCc2ccc(F)cc2)CS1
MIC grade, A. NIGER, YAG media (Aspergillus niger): 2 (2: 1-5 mg/L)
MIC grade, A. FLAVUS, YAG media (Aspergillus flavus): 2 (2: 1-5 mg/L)
MIC grade, A. TERREUS, YAG media (Aspergillus terreus): 2 (2: 1-5 mg/L)
MIC grade, A. FUMIGATUS 210, RPMI media (A. fumigatus 210 [1]): 1 (1: ≥20 mg/L)
MIC grade, A. FUMIGATUS, RPMI media (A. fumigatus): 1 (1: ≥20 mg/L)
MIC grade, A. TERREUS 49, YAG media (A. terreus 49 [2]): 2 (2: 1-5 mg/L)
MIC grade, A. FUMIGATUS, YAG media (Aspergillus fumigatus): 2 (2: 1-5 mg/L)
MIC grade, A. TERREUS 49, RPMI media (A. terreus 49 [3]): 1 (1: ≥20 mg/L)
MIC grade, C. ALBICANS, RPMI media (C. albicans): 2 (2: 5-20 mg/L)
MIC grade, A. TERREUS, RPMI media (A. terreus): 1 (1: ≥20 mg/L)
MIC grade, C. TROPICALIS, RPMI media (C. tropicalis): 2 (2: 5-20 mg/L)
MIC grade, A. NIGER, RPMI media (A. niger): 1 (1: ≥20 mg/L)
MIC grade, C. KRUSEI, RPMI media (C. krusei): 2 (2: 5-20 mg/L)
MIC grade, A. FLAVUS, RPMI media (A. flavus): 1 (1: ≥20 mg/L)
MIC grade, C. GLABRATA, RPMI media (C. glabrata): 2 (2: 5-20 mg/L)
MIC grade, C. PARAPSILOSIS, RPMI media (C. parapsilosis): 2 (2: 5-20 mg/L)
MIC grade, A. FUMIGATUS 210, YAG media (A. fumigatus 210 [4]): 2 (2: 1-5 mg/L)

NC1=NN=C(CCCCSCc2ccc(Cl)cc2)CS1
MIC grade, A. NIGER, YAG media (Aspergillus niger): 4 (4: <0.2 mg/L)
MIC grade, A. FLAVUS, YAG media (Aspergillus flavus): 4 (4: <0.2 mg/L)
MIC grade, A. TERREUS, YAG media (Aspergillus terreus): 4 (4: <0.2 mg/L)
MIC grade, A. FUMIGATUS 210, RPMI media (A. fumigatus 210 [1]): 2 (2: 5-20 mg/L)
MIC grade, A. FUMIGATUS, RPMI media (A. fumigatus): 2 (2: 5-20 mg/L)
MIC grade, A. TERREUS 49, YAG media (A. terreus 49 [2]): 4 (4: <0.2 mg/L)
MIC grade, A. FUMIGATUS, YAG media (Aspergillus fumigatus): 3 (3: 0.2-1 mg/L)
MIC grade, A. TERREUS 49, RPMI media (A. terreus 49 [3]): 2 (2: 5-20 mg/L)
MIC grade, C. ALBICANS, RPMI media (C. albicans): 3 (3: 1-5 mg/L)
MIC grade, A. TERREUS, RPMI media (A. terreus): 2 (2: 5-20 mg/L)
MIC grade, C. TROPICALIS, RPMI media (C. tropicalis): 3 (3: 1-5 mg/L)
MIC grade, A. NIGER, RPMI media (A. niger): 3 (3: 1-5 mg/L)
MIC grade, C. KRUSEI, RPMI media (C. krusei): 3 (3: 1-5 mg/L)
MIC grade, A. FLAVUS, RPMI media (A. flavus): 3 (3: 1-5 mg/L)
MIC grade, C. GLABRATA, RPMI media (C. glabrata): 2 (2: 5-20 mg/L)
MIC grade, C. PARAPSILOSIS, RPMI media (C. parapsilosis): 3 (3: 1-5 mg/L)
MIC grade, A. FUMIGATUS 210, YAG media (A. fumigatus 210 [4]): 3 (3: 0.2-1 mg/L)

NC1=NN=C(CCCCOCCCc2ccc(F)cc2F)CS1
MIC grade, A. NIGER, YAG media (Aspergillus niger): 3 (3: 0.2-1 mg/L)
MIC grade, A. FLAVUS, YAG media (Aspergillus flavus): 4 (4: <0.2 mg/L)
MIC grade, A. TERREUS, YAG media (Aspergillus terreus): 3 (3: 0.2-1 mg/L)
MIC grade, A. FUMIGATUS 210, RPMI media (A. fumigatus 210 [1]): 1 (1: ≥20 mg/L)
MIC grade, A. FUMIGATUS, RPMI media (A. fumigatus): 2 (2: 5-20 mg/L)
MIC grade, A. TERREUS 49, YAG media (A. terreus 49 [2]): 3 (3: 0.2-1 mg/L)
MIC grade, A. FUMIGATUS, YAG media (Aspergillus fumigatus): 3 (3: 0.2-1 mg/L)
MIC grade, A. TERREUS 49, RPMI media (A. terreus 49 [3]): 2 (2: 5-20 mg/L)
MIC grade, C. ALBICANS, RPMI media (C. albicans): 4 (4: <1 mg/L)
MIC grade, A. TERREUS, RPMI media (A. terreus): 2 (2: 5-20 mg/L)
MIC grade, C. TROPICALIS, RPMI media (C. tropicalis): 3 (3: 1-5 mg/L)
MIC grade, A. NIGER, RPMI media (A. niger): 2 (2: 5-20 mg/L)
MIC grade, C. KRUSEI, RPMI media (C. krusei): 4 (4: <1 mg/L)
MIC grade, A. FLAVUS, RPMI media (A. flavus): 3 (3: 1-5 mg/L)
MIC grade, C. GLABRATA, RPMI media (C. glabrata): 2 (2: 5-20 mg/L)
MIC grade, C. PARAPSILOSIS, RPMI media (C. parapsilosis): 4 (4: <1 mg/L)
MIC grade, A. FUMIGATUS 210, YAG media (A. fumigatus 210 [4]): 3 (3: 0.2-1 mg/L)

NC1=NN=C(CCCCOCc2ccc(Cl)cc2)CS1
MIC grade, A. NIGER, YAG media (Aspergillus niger): 4 (4: <0.2 mg/L)
MIC grade, A. FLAVUS, YAG media (Aspergillus flavus): 4 (4: <0.2 mg/L)
MIC grade, A. TERREUS, YAG media (Aspergillus terreus): 4 (4: <0.2 mg/L)
MIC grade, A. FUMIGATUS 210, RPMI media (A. fumigatus 210 [1]): 2 (2: 5-20 mg/L)
MIC grade, A. FUMIGATUS, RPMI media (A. fumigatus): 3 (3: 1-5 mg/L)
MIC grade, A. TERREUS 49, YAG media (A. terreus 49 [2]): 4 (4: <0.2 mg/L)
MIC grade, A. FUMIGATUS, YAG media (Aspergillus fumigatus): 4 (4: <0.2 mg/L)
MIC grade, A. TERREUS 49, RPMI media (A. terreus 49 [3]): 3 (3: 1-5 mg/L)
MIC grade, C. ALBICANS, RPMI media (C. albicans): 4 (4: <1 mg/L)
MIC grade, A. TERREUS, RPMI media (A. terreus): 3 (3: 1-5 mg/L)
MIC grade, C. TROPICALIS, RPMI media (C. tropicalis): 3 (3: 1-5 mg/L)
MIC grade, A. NIGER, RPMI media (A. niger): 3 (3: 1-5 mg/L)
MIC grade, C. KRUSEI, RPMI media (C. krusei): 4 (4: <1 mg/L)
MIC grade, A. FLAVUS, RPMI media (A. flavus): 4 (4: <1 mg/L)
MIC grade, C. GLABRATA, RPMI media (C. glabrata): 3 (3: 1-5 mg/L)
MIC grade, C. PARAPSILOSIS, RPMI media (C. parapsilosis): 4 (4: <1 mg/L)
MIC grade, A. FUMIGATUS 210, YAG media (A. fumigatus 210 [4]): 4 (4: <0.2 mg/L)
